# Values of other authors, collected in patent US5112837A, “Quinoline derivatives having anti-tumor activity” (Imperial Chemical Industries PLC, priority 1987, dated 1992).
# What was measured:
# [1] = tested on: human breast, ovarian and liver cancer; conditions: clinical trials
# [2] = literature references
smiles,measurement,setting,value
C#CCN(Cc1ccc2nc(N)[nH]c(=O)c2c1)c1ccc(C(=O)N[C@@H](CCC(=O)O)C(=O)O)cc1 [CB3717],activity against human cancer,[1],"promising activity against human breast, ovarian and liver cancer"
same,symptoms of toxicity in humans,[2],"symptoms of toxicity in humans, particularly in relation to the liver and kidney"
